A short description of data set [1]: Displacement of [3H]flunitrazepam from CBR receptor in rat brain cortex membrane incubated for 20 mins by liquid scintillation spectrometer method. It is filed as cell membranes, Cerebral cortex. In general terms: Loss of bound radioactivity is the signal in a displacement assay; it reports binding, not function.
The target of data set [2] is T1, Translocator protein (Homo sapiens, UniProt P30536). The data set is described as follows: Binding affinity to TSPO receptor (unknown origin).
The target in data set [3] is T2, Translocator protein (Rattus norvegicus, UniProt P16257). The data set is described as follows: Displacement of [3H]PK11195 from TSPO receptor in rat brain cortex membrane incubated for 120 mins by liquid scintillation spectrometer method. It is filed as cell membranes, Cerebral cortex.
In data set [4] the target is T1, Translocator protein. The data set is described as follows: Binding affinity to human TSPO.
Data set [5] has as its target T2, Translocator protein. Description: Displacement of [3H]PK11195 from TSPO receptor in rat brain cortex mitochondrial membrane incubated for 60 mins by liquid scintillation spectrometer method. It counts as cell membranes.
The target of data set [6] is T2, Translocator protein. Description: Displacement of [3H]PK11195 from TSPO receptor in rat brain cortex mitochondrial membrane by liquid scintillation spectrometer method. It counts as cell membranes.
The nature of data set [7]: Lipophilicity, log P of the compound at pH 7.4. Conditions: buffer. It counts as physicochemical.
Data set [8] can be described thus: Binding affinity to CBR (unknown origin). Also noted: species or system Homo sapiens.
Data set [9] in a line: Metabolic stability in rat brain assessed as parent compound remaining after 30 mins by radio-HPLC analysis. It is filed as ADME, tissue-based. The settings on record: read-out: Stability.

From ChEMBL document CHEMBL5226324, “Exploring Translocator Protein (TSPO) Medicinal Chemistry: An Approach for Targeting Radionuclides and Boron Atoms to Mitochondria” (J Med Chem, 2021) come the findings set out here.

T2 sequence (P16257 whole entry, looked up): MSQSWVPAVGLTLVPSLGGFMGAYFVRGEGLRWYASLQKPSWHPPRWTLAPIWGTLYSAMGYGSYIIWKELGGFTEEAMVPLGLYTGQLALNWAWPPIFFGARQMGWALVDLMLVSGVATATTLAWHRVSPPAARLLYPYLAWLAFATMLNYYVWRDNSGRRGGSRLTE
T1 sequence (P30536 whole entry): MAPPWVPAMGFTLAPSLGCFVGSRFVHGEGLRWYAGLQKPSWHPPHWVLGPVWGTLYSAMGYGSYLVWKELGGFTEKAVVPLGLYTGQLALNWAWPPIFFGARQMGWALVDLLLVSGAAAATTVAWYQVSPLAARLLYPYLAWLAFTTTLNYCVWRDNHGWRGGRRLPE

What is called IC50 is the point on the concentration scale where inhibition reaches its midpoint. `CCCN(CCC)C(=O)/C=C1\c2nc3ccccc3cc2C(=O)N1c1ccc(Cl)cc1`: the IC50 in [1] (read-out: IC50) is above 1000 nM. Still for that read-out and setting: the value for `CCCCCCN(CCCCCC)C(=O)CC1c2ncccc2C(=O)N1c1ccc(Cl)cc1` (stereo not given) was above 1000 nM; that for `CCCN(CCC)C(=O)/C=C1\c2ncccc2C(=O)N1c1ccc(Cl)cc1` was above 1000 nM.

As for `CCCCCCN(CCCCCC)C(=O)/C=C1\c2ncccc2C(=O)N1c1ccc(Cl)cc1`, the IC50 in data set [1] (read-out: IC50) is above 1000 nM. As a reminder, the Ki is a measure of affinity in units of concentration, obtained from inhibition or displacement. Low values mean higher affinity, high ones lower affinity. At Translocator protein [2], `CCN(CC)C(=O)[C@H]1CCCc2c1c1c(OC)cccc1n2CC[18F]` returned a Ki of 2.4 nM. `CCCCCCN(CCCCCC)C(=O)/C=C1\c2nc3ccccc3cc2C(=O)N1c1ccc(Cl)cc1`: the half-inhibitory concentration (IC50) in [1] (read-out: IC50) is above 1000 nM. Same read-out and setting: with `CCCCCCN(CCCCCC)C(=O)CC1c2nc3ccccc3cc2C(=O)N1c1ccc(Cl)cc1` (stereo not given) the figure was above 1000 nM; with `O=C1c2cccnc2CN1c1ccc(Cl)cc1`, above 1000 nM; with `CCCN(CCC)C(=O)CC1c2ncccc2C(=O)N1c1ccc(Cl)cc1` (stereo not given), 860 nM.

At Translocator protein [3], `CCCCN1Cc2c(nc3ccccc3c2-c2ccccc2)C1=O` displayed an IC50 above 10000 nM. For the compound `CN(Cc1ccccc1)C(=O)c1nc2ccccc2c2c1CCOc1ccccc1-2`, the IC50 on Translocator protein [3] is 10 nM.

Broadly, the Kd is the concentration at which binding is half-saturated. A higher Kd goes with lower affinity. On Translocator protein [4], `CCC(C)N(C)C(=O)c1cc2ccccc2c(-c2ccccc2[123I])n1` (stereo not given) showed a Kd of 10 nM. On Translocator protein [5], `CCN(CC)C(=O)Cc1c(-c2ccc([123I])cc2)nc2ccc(Cl)cn12` yielded a Kd of 3.84 nM. That is a single-digit nanomolar value. Regarding `CCCN(CCC)C(=O)CC1c2nc3ccccc3cc2C(=O)N1c1ccccc1` (stereo not given), the half-inhibitory concentration (IC50) (in data set [1] (read-out: IC50); on Translocator protein [3]) was above 1000 nM throughout.

`CCCCN1Cc2c(nc3ccccc3c2-c2ccccc2F)C1=O`: at Translocator protein [3], the IC50 was above 10000 nM. For orientation: logD means lipophilicity at a set pH, counting ionised and neutral species. `CC(=O)N(Cc1ccccc1OCC[18F])c1cnccc1Oc1ccccc1` registered a Ki on Translocator protein [6] of 0.07 nM. Besides, in data set [7], the logD was 2.99. In the case of `CCCN(CCC)C(=O)Cc1c(-c2ccc(Cl)cc2)[nH]c2ccc(Cl)cc12`, the IC50 in data set [1] (read-out: IC50) was above 1000 nM. For the compound `CCCN(CCC)C(=O)Cc1c(-c2ccc(Cl)cc2)nc2ccc(Cl)cn12` [ALPIDEM], in data set [8], the Ki was 1 nM. In addition, the values for the IC50 (in [1] (read-out: IC50); at Translocator protein [3]) were 1 nM and 0.5 nM, respectively.

Consider `CN1C(=O)CN=C(c2ccccc2)c2cc(Cl)ccc21` [DIAZEPAM], for which the IC50 in data set [1] came out at 5.6 nM. Take `CCN(CC)C(=O)Cc1c(-c2ccc(OCCF)cc2)nn2c(C)cc(C)nc12` [DPA-714]: the remaining at 0.5 h in [9] is below 3%. As to `CN1C(=O)CN=C(c2ccc(Cl)cc2)c2cc(Cl)ccc21` [RO-54864], the Kd at Translocator protein [2] came to 1.1 nM.
